What follows are molecules tested on T47D cells (assay: Cellular Growth Inhibition Assay for T47D Cells (CellTiter-Glo)). Conditions: 72 hours.
Type: cell-based, human
Procedure: Exemplary compounds were tested for ability to inhibit the proliferation of T47D cells. T47D cells are a commercially available human breast cancer cell line.
T47D cells were purchased from American Type Cell Culture (ATCC Cat #HTB-133) and then seeded on poly-D-lysine coated, black clear-bottom 384-well plates at 3000/well in 25 μL Dulbecco's Modified Eagle Medium (DMEM) supplemented with 10% w/w Fetal bovine serum (FBS), 0.2 units/mL recombinant human insulin (Gibco Cat #12585014), and 1% w/w Pen-Strep. Pen-Strep is a commercially available mixture of penicillin G and streptomycin, which is used in mammalian cell culture media to prevent bacterial contamination. Dulbecco's Modified Eagle Medium (DMEM) supplemented with 10% w/w fetal bovine serum (FBS), 0.2 units/mL recombinant human insulin, and 1% w/w Pen-Strep is herein referred to as Treatment Medium. Following seeding of cells in the plates, the plates were spun at 300×g for 30 seconds, then equilibrated to room temperature for 30 minutes, and then deposited in a humidified tissue culture incubator maintained at 37° C. with 5% CO2.
At 24 hours after seeding of the cells, dilutions of test compound were prepared in DMSO and dissolved in Treatment Medium, to achieve a final DMSO concentration of 0.5% w/w, thereby providing the Test Compound Solution. A 25 μL aliquot of the Test Compound Solution was added to cells in the well plates. An equal volume of a solution containing DMSO and Treatment Medium was used as a negative control. Following treatment of cells with Test Compound Solution or said equal volume of a solution containing DMSO and Treatment Medium, the plates were spun at 300×g for 30 seconds, and then left in an incubator for 72 hours.
At the end of the treatment duration, cell viability was quantified with CellTiter-Glo 2.0 reagent (Promega Cat #G9243). For this purpose, plates were equilibrated to room temperature for 30 minutes, and then 25 μL of CellTiter-Glo 2.0 reagent was added to cells in the plate wells. Plates were then agitated on a shaker for two minutes at 500 rpm and subsequently incubated at room temperature for 10 minutes. Following incubation, the plates were spun at 3000×g for 30 seconds, then sealed with an optical adhesive cover, and luminescence readings were measured with an EnVision Plate Reader (Perkin Elmer).
Data was normalized using zero luminescence for baseline. A four-parameter non-linear regression curve fit was applied to dose-response data in GraphPad Prism data analysis software to determine the half-maximal growth inhibitory concentration (GI50) for each test compound.

Row | SMILES | GI50
1 | CC(C)c1ccc(Oc2cccc(OCCC3CCN(c4ncc(C(=O)N[C@H]5C(C)(C)[C@H](Oc6ccc(C#N)c(Cl)c6)C5(C)C)cn4)CC3)c2)c(-c2cn(C)c(=O)c3[nH]ccc23)c1 [Compound I-141] | 500 to 1500 nM
2 | Cn1cc(-c2cc(C(C)(C)O)ccc2Oc2ccc(N3CC4(C3)CN(c3cnc(C(=O)N[C@H]5C(C)(C)[C@H](Oc6ccc(C#N)c(Cl)c6)C5(C)C)cn3)C4)cc2)c2cc[nH]c2c1=O [Compound I-355] | < 500 nM
3 | Cn1cc(-c2ccccc2Oc2ccc(N3CC(CC4CCN(c5ncc(C(=O)N[C@H]6C(C)(C)[C@H](Oc7ccc(C#N)c(Cl)c7)C6(C)C)cn5)CC4)C3)cc2)c2cc[nH]c2c1=O [Compound I-359] | > 3000 nM
4 | Cn1cc(-c2ccccc2Oc2ccc(N3CC(C4CCN(c5ncc(C(=O)N[C@H]6C(C)(C)[C@H](Oc7ccc(C#N)c(Cl)c7)C6(C)C)cn5)CC4)C3)cc2)c2cc[nH]c2c1=O [Compound I-360] | 500 to 1500 nM
5 | Cn1cc(-c2ccccc2Oc2ccc(N3CC(CC4CCN(c5cnc(C(=O)N[C@H]6C(C)(C)[C@H](Oc7ccc(C#N)c(Cl)c7)C6(C)C)cn5)CC4)C3)cc2)c2cc[nH]c2c1=O [Compound I-361] | < 500 nM
6 | Cn1cc(-c2cc(C(C)(C)O)ccc2Oc2ccc(N3CC(C4CCCN(c5ncc(C(=O)N[C@H]6C(C)(C)[C@H](Oc7ccc(C#N)c(Cl)c7)C6(C)C)cn5)CCC4)C3)cc2)c2cc[nH]c2c1=O [Compound I-362] | < 500 nM
7 | Cn1cc(-c2ccccc2Oc2ccc(N3CC(CC4CCN(c5ccc(C(=O)N[C@H]6C(C)(C)[C@H](Oc7ccc(C#N)c(Cl)c7)C6(C)C)nc5)CC4)C3)cc2)c2cc[nH]c2c1=O [Compound I-364] | > 3000 nM
8 | Cn1cc(-c2cc(C(C)(C)O)ccc2Oc2cccc(CC3CCN(c4ncc(C(=O)N[C@H]5C(C)(C)[C@H](Oc6ccc(C#N)c(Cl)c6)C5(C)C)cn4)CC3)c2)c2cc[nH]c2c1=O [Compound I-374] | 500 to 1500 nM
9 | Cn1cc(-c2cc(C(C)(C)O)ccc2Oc2cccc(N3CC(CC4CCN(c5ncc(C(=O)N[C@H]6C(C)(C)[C@H](Oc7ccc(C#N)c(Cl)c7)C6(C)C)cn5)CC4)C3)c2)c2cc[nH]c2c1=O [Compound I-376] | < 500 nM
10 | Cn1cc(-c2cc(C(C)(C)O)ccc2Oc2ccccc2)c2cc(C(=O)NC3CC(CC4CCN(c5ccc(C(=O)N[C@H]6C(C)(C)[C@H](Oc7ccc(C#N)c(Cl)c7)C6(C)C)nc5)CC4)C3)[nH]c2c1=O (some centres unmarked) [Compound I-378] | > 3000 nM
11 | Cn1cc(-c2cc(C(C)(C)O)ccc2Oc2ccc(N3CC(C4CCN(c5ccc(C(=O)N[C@H]6C(C)(C)[C@H](Oc7ccc(C#N)c(Cl)c7)C6(C)C)cn5)CC4)C3)cc2)c2cc[nH]c2c1=O [Compound I-382] | < 500 nM

Second part, the molecule after the results:

Row | GI50 | SMILES
12 | < 500 nM | Cn1cc(-c2ccccc2Oc2ccc(N3CC(CC4CN(c5ncc(C(=O)N[C@H]6C(C)(C)[C@H](Oc7ccc(C#N)c(Cl)c7)C6(C)C)cn5)C4)C3)cc2)c2cc[nH]c2c1=O [Compound I-363]
13 | < 500 nM | Cn1cc(-c2ccccc2Oc2ccc(N3CC(C4CCN(c5cnc(C(=O)N[C@H]6C(C)(C)[C@H](Oc7ccc(C#N)c(Cl)c7)C6(C)C)cn5)CC4)C3)cc2)c2cc[nH]c2c1=O [Compound I-365]
14 | 500 to 1500 nM | Cn1cc(-c2cc(C(C)(C)O)ccc2Oc2ccc(N3CC(C4CCN(c5cnc(C(=O)N[C@H]6C(C)(C)[C@H](Oc7ccc(C#N)c(Cl)c7)C6(C)C)cn5)CC4)C3)cc2)c2cc[nH]c2c1=O [Compound I-381]
15 | < 500 nM | COc1cc(O[C@H]2C(C)(C)[C@H](NC(=O)c3cnc(N4CCC(CC5CN(c6ccc(Oc7ccc(C(C)(C)O)cc7-c7cn(C)c(=O)c8[nH]ccc78)cc6)C5)CC4)cn3)C2(C)C)ccc1C#N [Compound I-384]

Same assay, conditions: Homo sapiens, 72 hours

Row | SMILES | GI50
16 | Cn1cc(-c2cc(C(C)(C)O)ccc2Oc2ccc(CC3CC4(CCN(c5ncc(C(=O)N[C@H]6C(C)(C)[C@H](Oc7ccc(C#N)c(Cl)c7)C6(C)C)cn5)CC4)C3)cc2)c2cc[nH]c2c1=O [Compound I-324] | < 500 nM
17 | Cn1cc(-c2cc(C(C)(C)O)ccc2Oc2ccc(C3CC(CC4CCN(c5ncc(C(=O)N[C@H]6C(C)(C)[C@H](Oc7ccc(C#N)c(Cl)c7)C6(C)C)cn5)CC4)C3)cc2)c2cc[nH]c2c1=O (some centres unmarked) [Compound I-354] | < 500 nM
18 | Cn1cc(-c2ccccc2Oc2ccc(OC3CC4(C3)CC3(CCN(c5ncc(C(=O)N[C@H]6C(C)(C)[C@H](Oc7ccc(C#N)c(Cl)c7)C6(C)C)cn5)CC3)C4)cc2)c2cc[nH]c2c1=O [Compound I-358] | > 3000 nM
19 | Cn1cc(-c2cc(C(C)(C)O)ccc2Oc2ccc(OC3CC4(C3)CC3(CCN(c5cnc(C(=O)N[C@H]6C(C)(C)[C@H](Oc7ccc(C#N)c(Cl)c7)C6(C)C)cn5)CC3)C4)cc2)c2cc[nH]c2c1=O [Compound I-366] | > 3000 nM
20 | Cn1cc(-c2cc(C(C)(C)O)ccc2Oc2ccc(OC3CC4(C3)CC3(CCN(c5ccc(C(=O)N[C@H]6C(C)(C)[C@H](Oc7ccc(C#N)c(Cl)c7)C6(C)C)nc5)CC3)C4)cc2)c2cc[nH]c2c1=O [Compound I-367] | > 3000 nM
21 | Cn1cc(-c2cc(C(C)(C)O)ccc2Oc2ccc(CC3CCN(c4ccc(C(=O)N[C@H]5C(C)(C)[C@H](Oc6ccc(C#N)c(Cl)c6)C5(C)C)cn4)CC3)cc2)c2cc[nH]c2c1=O [Compound I-369] | < 500 nM
22 | Cn1cc(-c2ccccc2Oc2ccc(CC3CCN(c4cnc(C(=O)N[C@H]5C(C)(C)[C@H](Oc6ccc(C#N)c(Cl)c6)C5(C)C)cn4)CC3)cc2)c2cc[nH]c2c1=O [Compound I-371] | < 500 nM
23 | Cn1cc(-c2cc(C(C)(C)O)ccc2Oc2ccc(N3CC(C[C@@H]4[C@H]5CN(c6ncc(C(=O)N[C@H]7C(C)(C)[C@H](Oc8ccc(C#N)c(Cl)c8)C7(C)C)cn6)C[C@@H]45)C3)cc2)c2cc[nH]c2c1=O [Compound I-372] | < 500 nM
24 | Cn1cc(-c2cc(C(C)(C)O)ccc2Oc2ccc(CC3CC4(CCN(c5ccc(C(=O)N[C@H]6C(C)(C)[C@H](Oc7ccc(C#N)c(Cl)c7)C6(C)C)nc5)CC4)C3)cc2)c2cc[nH]c2c1=O [Compound I-379] | 1500 to 3000 nM
25 | Cn1cc(-c2cc(C(C)(C)O)ccc2Oc2ccc(N3CC(CC4CCN(c5cnc(C(=O)N[C@H]6C(C)(C)[C@H](Oc7ccc(C#N)c(F)c7)C6(C)C)cn5)CC4)C3)cc2)c2cc[nH]c2c1=O [Compound I-383] | < 500 nM

Further lines, results first:

Row | GI50 | SMILES
26 | < 500 nM | Cn1cc(-c2ccccc2Oc2ccc(OCC3CCN(c4ncc(C(=O)NC5C(C)(C)C(Oc6ccc(C#N)c(Cl)c6)C5(C)C)cn4)CC3)cc2)c2cc[nH]c2c1=O (centres unmarked) [Compound I-356, N-[3-(3-chloro-4-cyano-phenoxy)-2,2,4,4-tetramethyl-cyclobutyl]-2-[4-[[4-[2-(6-methyl-7-oxo-1H-pyrrolo[2,3-c]pyridin-4-yl)phenoxy]phenoxy]methyl]-1-piperidyl]pyrimidine-5-carboxamide]
27 | < 500 nM | Cn1cc(-c2cc(C(C)(C)O)ccc2Oc2ccc(C#CC3CC4(C3)CN(c3ncc(C(=O)NC5C(C)(C)C(Oc6ccc(C#N)c(Cl)c6)C5(C)C)cn3)C4)cc2)c2cc[nH]c2c1=O (centres unmarked) [Compound I-357, N-[3-(3-chloro-4-cyano-phenoxy)-2,2,4,4-tetramethyl-cyclobutyl]-2-[6-[2-[4-[4-(1-hydroxy-1-methyl-ethyl)-2-(6-methyl-7-oxo-1H-pyrrolo[2,3-c]pyridin-4-yl)phenoxy]phenyl]ethynyl]-2-azaspiro[3.3]heptan-2-yl]pyrimidine-5-carboxamide]
28 | < 500 nM | Cn1cc(-c2cc(C(C)(C)O)ccc2Oc2ccc(CC3CCN(c4ccc(C(=O)N[C@H]5C(C)(C)[C@H](Oc6ccc(C#N)c(Cl)c6)C5(C)C)nc4)CC3)cc2)c2cc[nH]c2c1=O [Compound I-368]
29 | < 500 nM | Cn1cc(-c2cc(C(C)(C)O)ccc2Oc2ccc(CC3CCN(c4cnc(C(=O)N[C@H]5C(C)(C)[C@H](Oc6ccc(C#N)c(Cl)c6)C5(C)C)cn4)CC3)cc2)c2cc[nH]c2c1=O [Compound I-370]
30 | > 3000 nM | Cn1cc(-c2cc(C(C)(C)O)ccc2Oc2ccc(CC3CC4(CCN(c5cnc(C(=O)N[C@H]6C(C)(C)[C@H](Oc7ccc(C#N)c(Cl)c7)C6(C)C)cn5)CC4)C3)cc2)c2cc[nH]c2c1=O [Compound I-375]
31 | > 3000 nM | Cn1cc(-c2cc(C(C)(C)O)ccc2Oc2ccccc2)c2cc(C(=O)NC3CC(CC4CCN(c5ccc(C(=O)NC6C(C)(C)C(Oc7ccc(C#N)c(Cl)c7)C6(C)C)nc5)CC4)C3)[nH]c2c1=O (centres unmarked) [Compound I-377, N-[3-[[1-[6-[[3-(3-chloro-4-cyano-phenoxy)-2,2,4,4-tetramethyl-cyclobutyl]carbamoyl]-3-pyridyl]-4-piperidyl]methyl]cyclobutyl]-4-[5-(1-hydroxy-1-methyl-ethyl)-2-phenoxy-phenyl]-6-methyl-7-oxo-1H-pyrrolo[2,3-c]pyridine-2-carboxamide]
32 | 500 to 1500 nM | Cn1cc(-c2cc(C(C)(C)O)ccc2Oc2ccc(CC3CC4(CCN(c5ccc(C(=O)N[C@H]6C(C)(C)[C@H](Oc7ccc(C#N)c(Cl)c7)C6(C)C)cn5)CC4)C3)cc2)c2cc[nH]c2c1=O [Compound I-380]
